Data reported in BindingDB's records for doi:10.1021/jm050855s (Glaxosmithkline, 2006).

Test: Inhibition of HCV RNA replication in Huh7 cells

SMILES | EC50 [µM]
CC(C)CCn1c(=O)c(C2=Nc3ccccc3S(=O)(=O)N2)c(O)c2ccccc21 | 0.417
O=c1c(C2=Nc3ccccc3S(=O)(=O)N2)c(O)c2ccccc2n1CCC1CC1 [1-(2-cyclopropylethyl)-3-(1,1-dioxo-1,4-dihydro-1-benzo[1,2,4]-thiadiazin-3-yl)-4-hydroxy-1H-quinolin-2-one] | 0.152
CCCCn1c(=O)c(C2=NS(=O)(=O)c3ccccc3N2)c(O)c2ccccc21 [1-Butyl-3-(1,1-dioxo-1,4-dihydro-1lambda*6*-benzo[1,2,4]thiadiazin-3-yl)-4-hydroxy-1H-quinolin-2-one] | 0.444
O=c1c(C2=Nc3ccccc3S(=O)(=O)N2)c(O)c2ccccc2n1CC1CCC1 [1-cyclobutylmethyl-3-(1,1-dioxo-1,2-dihydrobenzo[1,2,4]thiadiazin-3-yl)-4-hydroxy-1-1H-quinolin-2-one] | 0.241
O=c1c(C2=Nc3ccccc3S(=O)(=O)N2)c(O)c2ccccc2n1-c1ccccc1 [3-(1,1-dioxo-1,2-dihydrobenzo[1,2,4]thiadiazin-3-yl)-4-hydroxy-1-phenyl-1Hquinolin-2-one] | 0.774
Cc1ccc2c(c1)c(O)c(C1=Nc3ccccc3S(=O)(=O)N1)c(=O)n2CCC(C)C [3-(1,1-dioxo-1,2-dihydrobenzo[1,2,4]thiadiazin-3-yl)-4-hydroxy-6-methyl-1-(3-methylbutyl)-1H-quinolin-2-one] | 0.18
CC(C)CCn1c(=O)c(C2=Nc3ccccc3S(=O)(=O)N2)c(O)c2c(F)cccc21 [3-(1,1-dioxo-1,2-dihydrobenzo[1,2,4]thiadiazin-3-yl)-5-fluoro-4-hydroxy-1-(3-methylbutyl)-1H-quinolin-2-one] | 0.381
CC(C)CCn1c(=O)c(C2=Nc3ccccc3S(=O)(=O)N2)c(O)c2cc(F)ccc21 [3-(1,1-dioxo-1,4-dihydro-1lambda*6*-benzo[1,2,4]thiadiazin-3-yl)-6-fluoro-4-hydroxy-1-(3-methyl-butyl)-1H-quinolin-2-one] | 0.261
O=c1c(C2=Nc3ccccc3S(=O)(=O)N2)c(O)c2ccccc2n1Cc1ccoc1 [3-(1,1-dioxo-1,4-dihydrobenzo[1,2,4]thiadiazin-3-yl)-1-furan-3-ylmethyl-4-hydroxy-1H-quinolin-2-one] | 0.389
CC(C)CCn1c(=O)c(C2=Nc3ccccc3S(=O)(=O)N2)c(O)c2cc(OCC(N)=O)ccc21 [4-[3-(1,1-dioxo-1,4-dihydrobenzo[1,2,4]thiadiazin-3-yl)-4-hydroxy-1-(3-methylbutyl)-2-oxo-1,2-dihydroquinolin-6-yloxy]acetamide] | 0.511
CC(C)CCn1c(=O)c(C2=Nc3ccccc3S(=O)(=O)N2)c(O)c2cc(OCC#N)ccc21 [4-[3-(1,1-dioxo-1,4-dihydrobenzo[1,2,4]thiadiazin-3-yl)-4-hydroxy-1-(3-methylbutyl)-2-oxo-1,2-dihydroquinolin-6-yloxy]acetonitrile] | 0.298
Nc1ccc2c(c1)c(O)c(C1=Nc3ccccc3S(=O)(=O)N1)c(=O)n2CCC1CC1 [6-Amino-1-(2-cyclopropylethyl)-3-(1,1-dioxo-1,4-dihydrobenzo[1,2,4]thiadiazin-3-] | 0.157
CC(C)CCn1c(=O)c(C2=Nc3ccccc3S(=O)(=O)N2)c(O)c2cc(N)ccc21 [6-amino-3-(1,1-dioxo-1,2-dihydrobenzo[1,2,4]thiadiazin-3-yl)-4-hydroxy-1-(3-methylbutyl)-1H-quinolin-2-one] | 0.274
CC(C)CCn1c(=O)c(C2=Nc3ccccc3S(=O)(=O)N2)c(O)c2cc(Cl)ccc21 [6-chloro-3-(1,1-dioxo-1,2-dihydrobenzo[1,2,4]thiadiazin-3-yl)-4-hydroxy-1-(3-methylbutyl)-1H-quinolin-2-one] | 1.2
CCOC(=O)CNc1ccc2c(c1)c(O)c(C1=Nc3ccccc3S(=O)(=O)N1)c(=O)n2CCC(C)C [[3-(1,1-dioxo-1,4-dihydrobenzo[1,2,4]thiadiazin-3-yl)-4-hydroxy-1-(3-methylbutyl)-1H-dihydroquinolin-6-ylamino]acetic acid ethyl ester] | 0.265
CC(C)CCn1c(=O)c(C2=Nc3ccccc3S(=O)(=O)N2)c(O)c2cc(NCC(=O)O)ccc21 [[3-(1,1-dioxo-1,4-dihydrobenzo[1,2,4]thiadiazin-3-yl)-4-hydroxy-1-(3-methylbutyl)-1H-dihydroquinolin-6-ylamino]acetic acid] | 2.49
